Legend:
[1] = biological target: Tyrosine-protein kinase receptor UFO (Homo sapiens) (UniProt P30530); assay: Residual activity of AXL at 0.1 uM by microplate scintillation counting
[2] = biological target: Serine/threonine-protein kinase Nek6 (Homo sapiens) (UniProt Q9HC98); assay: Residual activity of NEK6 at 10 uM by microplate scintillation counting
[3] = biological target: T1, Serine/threonine-protein kinase Sgk3 (Homo sapiens) (UniProt Q96BR1); assay: Residual activity of SGK3 at 10 uM by microplate scintillation counting
T1 sequence (whole entry): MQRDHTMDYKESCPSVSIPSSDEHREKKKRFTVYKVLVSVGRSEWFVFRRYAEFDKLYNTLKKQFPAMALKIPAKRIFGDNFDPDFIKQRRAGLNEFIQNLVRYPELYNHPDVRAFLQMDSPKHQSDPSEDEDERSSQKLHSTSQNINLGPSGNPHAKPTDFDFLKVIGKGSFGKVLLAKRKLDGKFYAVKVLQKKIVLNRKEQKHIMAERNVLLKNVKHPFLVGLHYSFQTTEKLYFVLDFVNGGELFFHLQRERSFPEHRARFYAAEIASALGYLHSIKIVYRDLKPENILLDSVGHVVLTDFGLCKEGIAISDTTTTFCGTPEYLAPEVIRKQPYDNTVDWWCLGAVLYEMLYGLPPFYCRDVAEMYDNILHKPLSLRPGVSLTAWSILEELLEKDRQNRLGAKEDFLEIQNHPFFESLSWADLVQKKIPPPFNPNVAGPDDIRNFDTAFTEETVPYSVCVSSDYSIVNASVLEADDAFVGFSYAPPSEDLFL

[4] = biological target: T2, Megakaryocyte-associated tyrosine-protein kinase (Homo sapiens) (UniProt P42679); assay: Residual activity of MATK at 0.1 uM by microplate scintillation counting
T2 sequence (whole entry): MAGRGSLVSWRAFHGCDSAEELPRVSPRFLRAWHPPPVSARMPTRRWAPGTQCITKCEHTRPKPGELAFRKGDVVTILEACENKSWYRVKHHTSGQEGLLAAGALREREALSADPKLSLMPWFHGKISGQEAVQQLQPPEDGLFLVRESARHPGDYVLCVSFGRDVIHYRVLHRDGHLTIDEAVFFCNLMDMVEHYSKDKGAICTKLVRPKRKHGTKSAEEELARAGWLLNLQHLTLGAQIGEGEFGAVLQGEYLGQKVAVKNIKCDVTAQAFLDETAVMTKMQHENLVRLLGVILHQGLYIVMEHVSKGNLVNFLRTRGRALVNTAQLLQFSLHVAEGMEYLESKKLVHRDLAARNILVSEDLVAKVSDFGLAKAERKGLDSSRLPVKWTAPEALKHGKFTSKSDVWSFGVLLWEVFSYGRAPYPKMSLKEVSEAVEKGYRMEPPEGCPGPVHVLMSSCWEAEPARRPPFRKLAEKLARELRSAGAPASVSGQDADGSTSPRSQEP

[5] = biological target: Tyrosine-protein kinase ABL1 (Homo sapiens) (UniProt P00519); assay: Residual activity of wild type ABL1 at 0.1 uM by microplate scintillation counting
Tyrosine-protein kinase ABL1 (Homo sapiens), sequence (P00519 whole entry): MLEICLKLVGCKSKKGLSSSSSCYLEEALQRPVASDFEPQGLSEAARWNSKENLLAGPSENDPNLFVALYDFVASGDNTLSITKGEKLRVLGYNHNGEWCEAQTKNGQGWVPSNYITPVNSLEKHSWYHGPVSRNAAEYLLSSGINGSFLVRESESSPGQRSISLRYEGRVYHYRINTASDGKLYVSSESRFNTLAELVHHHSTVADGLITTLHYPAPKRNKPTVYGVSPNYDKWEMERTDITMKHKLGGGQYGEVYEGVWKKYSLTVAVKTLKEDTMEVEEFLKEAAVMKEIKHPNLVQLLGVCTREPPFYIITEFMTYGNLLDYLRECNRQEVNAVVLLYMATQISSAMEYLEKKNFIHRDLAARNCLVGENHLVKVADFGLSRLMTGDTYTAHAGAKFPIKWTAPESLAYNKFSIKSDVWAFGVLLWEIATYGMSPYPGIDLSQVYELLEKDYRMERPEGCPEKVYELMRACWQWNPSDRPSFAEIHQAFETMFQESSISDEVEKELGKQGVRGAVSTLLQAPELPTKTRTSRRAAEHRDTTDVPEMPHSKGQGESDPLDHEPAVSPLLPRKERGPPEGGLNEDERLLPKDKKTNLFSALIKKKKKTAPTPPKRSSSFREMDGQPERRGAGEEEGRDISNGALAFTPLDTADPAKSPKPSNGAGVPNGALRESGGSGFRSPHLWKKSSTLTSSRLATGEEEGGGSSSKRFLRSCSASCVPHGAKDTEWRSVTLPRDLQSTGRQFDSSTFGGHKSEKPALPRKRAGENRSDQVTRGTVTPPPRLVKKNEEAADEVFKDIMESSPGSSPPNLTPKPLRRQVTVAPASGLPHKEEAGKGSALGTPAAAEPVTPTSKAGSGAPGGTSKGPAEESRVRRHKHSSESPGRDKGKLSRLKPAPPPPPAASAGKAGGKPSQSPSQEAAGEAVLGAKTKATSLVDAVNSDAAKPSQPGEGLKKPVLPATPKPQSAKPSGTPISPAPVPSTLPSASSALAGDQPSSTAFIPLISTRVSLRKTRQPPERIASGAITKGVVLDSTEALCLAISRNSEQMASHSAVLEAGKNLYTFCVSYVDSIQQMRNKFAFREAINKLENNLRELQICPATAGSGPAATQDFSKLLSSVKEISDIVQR

[6] = biological target: Tyrosine-protein kinase Yes (Homo sapiens) (UniProt P07947); assay: Residual activity of YES at 1 uM by microplate scintillation counting
Tyrosine-protein kinase Yes (Homo sapiens), sequence (P07947 2-543 limits assumed): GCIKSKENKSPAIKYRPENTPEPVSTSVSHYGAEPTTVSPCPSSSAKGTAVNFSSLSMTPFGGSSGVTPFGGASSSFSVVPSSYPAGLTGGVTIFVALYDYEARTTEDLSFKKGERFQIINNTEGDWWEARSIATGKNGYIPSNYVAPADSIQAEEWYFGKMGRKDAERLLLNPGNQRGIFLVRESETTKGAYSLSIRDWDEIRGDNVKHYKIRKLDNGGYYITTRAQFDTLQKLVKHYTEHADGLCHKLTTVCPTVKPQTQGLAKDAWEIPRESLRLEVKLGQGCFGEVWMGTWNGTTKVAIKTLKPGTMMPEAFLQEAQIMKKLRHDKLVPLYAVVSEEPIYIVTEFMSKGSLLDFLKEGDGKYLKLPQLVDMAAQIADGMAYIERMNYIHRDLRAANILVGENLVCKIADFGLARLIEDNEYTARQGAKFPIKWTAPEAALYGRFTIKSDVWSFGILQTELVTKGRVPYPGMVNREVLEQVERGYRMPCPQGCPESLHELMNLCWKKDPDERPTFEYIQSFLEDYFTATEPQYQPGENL

[7] = biological target: T3, Inhibitor of nuclear factor kappa-B kinase subunit alpha (Homo sapiens) (UniProt O15111); assay: Residual activity of IKKalpha at 0.1 uM by microplate scintillation counting
T3 sequence (whole entry): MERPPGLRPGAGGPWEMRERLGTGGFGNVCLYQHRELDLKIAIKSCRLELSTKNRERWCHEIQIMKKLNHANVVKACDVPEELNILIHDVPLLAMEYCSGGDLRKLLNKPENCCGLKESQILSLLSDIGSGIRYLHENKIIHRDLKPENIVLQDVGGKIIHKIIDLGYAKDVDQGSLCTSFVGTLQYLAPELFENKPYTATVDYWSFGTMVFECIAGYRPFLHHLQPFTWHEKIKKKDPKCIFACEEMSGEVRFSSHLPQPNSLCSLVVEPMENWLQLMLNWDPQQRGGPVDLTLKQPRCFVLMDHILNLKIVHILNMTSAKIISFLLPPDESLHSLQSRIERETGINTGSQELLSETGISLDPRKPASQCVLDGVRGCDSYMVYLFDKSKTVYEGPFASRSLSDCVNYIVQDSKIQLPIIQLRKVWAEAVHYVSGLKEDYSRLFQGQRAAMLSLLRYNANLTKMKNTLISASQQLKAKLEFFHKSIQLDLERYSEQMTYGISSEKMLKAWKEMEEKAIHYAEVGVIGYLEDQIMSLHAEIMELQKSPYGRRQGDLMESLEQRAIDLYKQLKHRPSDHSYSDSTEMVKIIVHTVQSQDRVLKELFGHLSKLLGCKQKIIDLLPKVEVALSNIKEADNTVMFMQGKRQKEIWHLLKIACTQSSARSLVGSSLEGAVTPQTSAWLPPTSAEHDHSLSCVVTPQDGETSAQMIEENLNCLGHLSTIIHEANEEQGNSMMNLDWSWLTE

[8] = biological target: Tyrosine-protein kinase FRK (Homo sapiens) (UniProt P42685); assay: Residual activity of FRK at 10 uM by microplate scintillation counting
[9] = biological target: Death-associated protein kinase 1 (Homo sapiens) (UniProt P53355); assay: Residual activity of DAPK1 at 1 uM by microplate scintillation counting
[10] = biological target: Ribosomal protein S6 kinase alpha-5 (Homo sapiens) (UniProt O75582); assay: Residual activity of RPS6KA5 at 0.1 uM by microplate scintillation counting
Ribosomal protein S6 kinase alpha-5 (Homo sapiens), sequence (O75582 whole entry, looked up): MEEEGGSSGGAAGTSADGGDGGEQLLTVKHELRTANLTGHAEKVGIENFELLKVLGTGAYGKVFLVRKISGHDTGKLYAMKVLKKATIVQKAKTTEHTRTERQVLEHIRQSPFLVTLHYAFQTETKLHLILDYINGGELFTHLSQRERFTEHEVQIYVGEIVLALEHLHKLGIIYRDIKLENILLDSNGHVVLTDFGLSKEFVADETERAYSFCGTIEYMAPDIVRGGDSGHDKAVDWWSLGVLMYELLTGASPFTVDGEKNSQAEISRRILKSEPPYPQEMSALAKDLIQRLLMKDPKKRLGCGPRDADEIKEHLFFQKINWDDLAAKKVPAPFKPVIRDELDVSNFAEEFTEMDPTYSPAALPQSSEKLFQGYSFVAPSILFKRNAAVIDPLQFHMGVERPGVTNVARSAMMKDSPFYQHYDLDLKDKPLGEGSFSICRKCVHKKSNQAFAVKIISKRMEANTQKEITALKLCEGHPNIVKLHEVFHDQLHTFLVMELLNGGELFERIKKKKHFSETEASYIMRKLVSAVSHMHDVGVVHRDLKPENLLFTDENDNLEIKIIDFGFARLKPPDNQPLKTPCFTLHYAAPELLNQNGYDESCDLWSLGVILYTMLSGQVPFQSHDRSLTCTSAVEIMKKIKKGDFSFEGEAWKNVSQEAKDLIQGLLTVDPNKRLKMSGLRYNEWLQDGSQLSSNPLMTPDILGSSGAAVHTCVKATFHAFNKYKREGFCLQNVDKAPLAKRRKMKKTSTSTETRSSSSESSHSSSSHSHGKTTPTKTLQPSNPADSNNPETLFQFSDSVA

[11] = biological target: Receptor tyrosine-protein kinase erbB-2 (Homo sapiens, UniProt P04626); assay: Residual activity of ERBB2 at 1 uM by microplate scintillation counting
Receptor tyrosine-protein kinase erbB-2, sequence (P04626 whole entry): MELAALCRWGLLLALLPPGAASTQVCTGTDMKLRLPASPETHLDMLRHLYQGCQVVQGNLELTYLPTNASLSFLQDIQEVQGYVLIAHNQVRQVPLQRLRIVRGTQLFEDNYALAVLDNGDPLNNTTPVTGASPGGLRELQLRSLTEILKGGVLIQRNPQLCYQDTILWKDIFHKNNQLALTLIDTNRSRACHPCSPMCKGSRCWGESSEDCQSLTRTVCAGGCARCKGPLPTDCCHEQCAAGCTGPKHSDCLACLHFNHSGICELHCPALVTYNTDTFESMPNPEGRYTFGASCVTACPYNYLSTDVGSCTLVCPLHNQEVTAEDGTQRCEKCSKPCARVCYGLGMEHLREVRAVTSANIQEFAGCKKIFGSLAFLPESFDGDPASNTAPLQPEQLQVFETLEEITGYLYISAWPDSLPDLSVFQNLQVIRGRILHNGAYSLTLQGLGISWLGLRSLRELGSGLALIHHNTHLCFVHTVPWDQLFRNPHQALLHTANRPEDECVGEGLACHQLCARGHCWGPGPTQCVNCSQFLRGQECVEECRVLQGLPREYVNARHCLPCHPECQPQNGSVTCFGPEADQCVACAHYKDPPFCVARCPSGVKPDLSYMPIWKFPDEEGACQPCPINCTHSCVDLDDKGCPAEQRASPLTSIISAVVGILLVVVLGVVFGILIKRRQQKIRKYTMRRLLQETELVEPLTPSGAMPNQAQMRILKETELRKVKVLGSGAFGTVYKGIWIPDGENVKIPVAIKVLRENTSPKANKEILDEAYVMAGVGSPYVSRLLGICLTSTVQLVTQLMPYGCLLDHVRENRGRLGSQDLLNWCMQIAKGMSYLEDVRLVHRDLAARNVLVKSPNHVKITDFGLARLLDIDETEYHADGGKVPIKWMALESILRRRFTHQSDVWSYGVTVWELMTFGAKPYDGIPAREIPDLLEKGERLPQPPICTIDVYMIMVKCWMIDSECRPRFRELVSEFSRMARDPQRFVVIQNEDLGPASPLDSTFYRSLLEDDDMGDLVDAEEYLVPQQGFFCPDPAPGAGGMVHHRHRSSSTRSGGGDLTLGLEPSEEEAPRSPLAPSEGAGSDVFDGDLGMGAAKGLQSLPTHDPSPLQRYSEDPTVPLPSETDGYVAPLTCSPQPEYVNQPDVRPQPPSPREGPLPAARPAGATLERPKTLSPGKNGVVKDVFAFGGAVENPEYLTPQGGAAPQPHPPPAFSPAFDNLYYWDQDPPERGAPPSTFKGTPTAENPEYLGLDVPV

Tyrosine-protein kinase receptor UFO (Homo sapiens), sequence (P30530 whole entry): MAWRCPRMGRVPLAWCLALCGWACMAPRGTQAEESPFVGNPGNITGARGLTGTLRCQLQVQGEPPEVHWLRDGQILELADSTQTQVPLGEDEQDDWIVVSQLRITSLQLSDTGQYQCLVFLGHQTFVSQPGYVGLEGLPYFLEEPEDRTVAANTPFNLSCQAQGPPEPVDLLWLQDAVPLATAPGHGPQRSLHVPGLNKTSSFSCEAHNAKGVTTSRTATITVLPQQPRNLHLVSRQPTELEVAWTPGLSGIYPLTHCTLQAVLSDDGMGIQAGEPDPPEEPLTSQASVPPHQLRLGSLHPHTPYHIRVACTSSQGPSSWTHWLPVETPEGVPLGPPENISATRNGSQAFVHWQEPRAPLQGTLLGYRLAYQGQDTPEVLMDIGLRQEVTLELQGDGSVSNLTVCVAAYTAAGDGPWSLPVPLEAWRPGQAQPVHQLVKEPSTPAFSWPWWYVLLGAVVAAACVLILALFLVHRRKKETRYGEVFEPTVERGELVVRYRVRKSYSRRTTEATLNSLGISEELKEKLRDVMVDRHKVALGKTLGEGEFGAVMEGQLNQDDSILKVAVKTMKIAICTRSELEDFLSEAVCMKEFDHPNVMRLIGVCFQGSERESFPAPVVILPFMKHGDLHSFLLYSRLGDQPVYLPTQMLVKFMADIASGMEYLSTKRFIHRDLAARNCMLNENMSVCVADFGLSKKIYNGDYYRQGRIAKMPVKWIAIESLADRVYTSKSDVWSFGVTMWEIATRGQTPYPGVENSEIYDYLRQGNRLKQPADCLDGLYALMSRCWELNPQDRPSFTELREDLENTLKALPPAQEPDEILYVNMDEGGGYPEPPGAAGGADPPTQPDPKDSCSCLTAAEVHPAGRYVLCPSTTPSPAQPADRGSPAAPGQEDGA
Serine/threonine-protein kinase Nek6 (Homo sapiens), sequence (Q9HC98 whole entry): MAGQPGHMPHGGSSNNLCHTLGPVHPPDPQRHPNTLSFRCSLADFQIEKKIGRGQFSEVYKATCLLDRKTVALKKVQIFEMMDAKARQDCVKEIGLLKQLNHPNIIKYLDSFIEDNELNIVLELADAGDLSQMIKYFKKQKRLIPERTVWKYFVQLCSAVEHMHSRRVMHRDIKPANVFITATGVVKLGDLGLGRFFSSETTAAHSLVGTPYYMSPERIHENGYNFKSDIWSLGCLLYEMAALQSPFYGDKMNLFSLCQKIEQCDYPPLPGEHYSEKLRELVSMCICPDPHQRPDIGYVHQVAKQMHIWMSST

In the case of `COc1cc2c(Oc3ccc(-c4nc5ccccc5s4)cc3)ncnc2cc1OCCCN1CCN(C)CC1`, the residual activity [1] is reported as 117%, the residual activity [2] is reported as 96% and the residual activity [3] is reported as 112%. For the same compound, the residual activity [4] was 107%, the residual activity [5] was 94% and the residual activity [6] was 68%. The residual activity [7] was 87%, the residual activity [8] was 61% and the residual activity [9] was 81%. The residual activity [10] was 89% and the residual activity [11] was 98%.
`COc1cc2c(Oc3ccc(-c4nc5ccccc5s4)cc3)ncnc2cc1OCCCN1CCCC1` gave a residual activity [1] of 96%, a residual activity [2] of 94% and a residual activity [3] of 98%. The residual activity [4] was 109%, the residual activity [5] was 97% and the residual activity [6] was 84%. The residual activity [7] was 89%, the residual activity [8] was 71% and the residual activity [9] was 86%. The residual activity [10] was 96% and the residual activity [11] was 128%.
`COc1cc2c(Oc3ccc(-c4nc5ccccc5s4)cc3F)ncnc2cc1OCCCN1CCN(C)CC1` gave a residual activity [1] of 104%, a residual activity [2] of 101% and a residual activity [3] of 97%. For the same compound, the residual activity [4] was 96%, the residual activity [5] was 100% and the residual activity [6] was 49%. For the same compound, the residual activity [7] was 81%, the residual activity [8] was 24% and the residual activity [9] was 90%. It also gave a residual activity [10] of 86% and a residual activity [11] of 99%.

From ChEMBL document CHEMBL1152560, “Substituted 2-arylbenzothiazoles as kinase inhibitors: hit-to-lead optimization” (Bioorg Med Chem, 2009)
